Measurements: patent US5348941A, “Stabilizers for fibroblast growth factors” (Merck & Co., Inc., priority 1992, dated 1994)
Blank lines part the entries; values can stand above or below the compound they belong to.

Key:
aFGF [1] = target: T1, aFGF (Homo sapiens, UniProt P05230); assay: Thermal denaturation (Tm) of aFGF by fluorescence spectroscopy; format: biochemical; conditions: PBS pH 7.2
T1 construct: The recombinant derived, 140 amino add form is the preferred form of aFGF; N-terminal methionine (MetHaFGF); made in house; host or cells: microbial cells (preferred embodiment)
T1 sequence (P05230 16-155 limits assumed): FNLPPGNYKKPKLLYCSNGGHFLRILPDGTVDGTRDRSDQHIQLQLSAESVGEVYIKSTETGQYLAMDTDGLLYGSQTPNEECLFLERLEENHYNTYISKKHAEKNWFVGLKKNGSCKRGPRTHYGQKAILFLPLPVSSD
Protocol: Fluorescence spectra are obtained with a Spex Fluorolog-2 spectrofiuorometer using a 1 mm pathlength cuvette. Band passes from 1-2 nm are employed with sample absorptivities maintained below 0.1 at 280 nm. The temperature is controlled either manually or automatically as described above. Reproducibility of thermal denaturation temperatures (Tm) is ± 2° C.
To more directly ascertain the effect of heparin on aFGF stability, the temperature-induced denaturation of aFGF as a function of heparin concentration was monitored by fluorescence spectroscopy. Fluorescence spectra were obtained with a Spex Fluorolog-2 spectrofiuorometer using a 1 mm pathlength cuvette. Band passes from 1-2 nm were employed with sample absorptivities maintained below 0.1 at 280 nm. The temperature was controlled either manually or automatically as described above. Reproducibility of thermal denaturation temperatures (Tm) was ±2° C. […] Experiments were carried out at 100 μg/ml protein (6.3 μM) in a PBS buffer at pH 7.2. Curve drawn through data points for clarity only.
Studies of the stabilization of aFGF by heparin are difficult to interpret because of the inherent heterogeneity of heparin preparations, Lane and Lindahl, Eds. Heparin, Chemical and Biological Properties, Clinical Applications, Edward Arnold, London (1989); Jackson, et al., Physiol. Rev. 71: 481-539 (1991). In order to better understand the polyanionic stabilization of aFGF, a series of well-defined fragments of heparin were examined for their ability to stabilize aFGF against thermal denaturation. These enzymatically prepared and purified fragments varied in size from a disaccharide to a decasaccharide. Each fragment was incubated with aFGF at a 1:1 weight ratio in a PBS buffer. The sample was then stressed by temperature and structural changes in aFGF were monitored by both circular dichroism and fluorescence spectroscopy. […] All samples contained 100 μg/ml aFGF (6.3 μM)in a PBS buffer (pH 7.2) with 100 μg/ml of each heparin fragment.
Since these fragments of heparin have a well-defined molecular weight, the molar ratio of aFGF to ligand during these thermal denaturation experiments can be calculated. The Tm of aFGF as a function of the molar concentration of the hexasaccharide was measured by fluorescence spectroscopy. Fluorescence spectra were obtained with a Spex Fluorolog-2 spectrofiuorometer using a 1mm pathlength cuvette. Band passes from 1-2 nm were employed with sample absorptivities maintained below 0.1 at 280 nm. The temperature was controlled either manually or automatically as described above. Reproducibility of thermal denaturation temperatures (Tm) was ±2° C.
Analogous to the heparin experiments illustrated in Example 1 (FIG. 3), aFGF thermal stability was monitored by fluorescence spectroscopy as a function of concentration for several other of the polyanions. […] All samples contained 100 μg/ml of aFGF (6.3 μM) in a PBS buffer at pH 7.2.

aFGF [2] = target: T1, aFGF; assay: Thermal denaturation (Tm) of aFGF by circular dichroism; format: biochemical; conditions: for Tm of aFGF, circular dichroism: 3X ligand by weight; for Tm of aFGF (maximum Tm induced by ligand), circular dichroism: PBS pH 7.2, excess ligand (1-3X by weight; 120 mM sodium sulfate, 10 mM tetrapolyphosphate)
Protocol: Circular Dichroism (CD) spectra are measured with an AVIV 62 DS spectropolarimeter. Samples of aFGF at about 100 μg/ml in a PBS buffer (6 mM sodium phosphate, 120 mM NaCl, pH 7.2) containing various ligands are placed into 1 mm pathlength cells and the cell temperature is controlled by circulating a water/ethylene glycol mixture through the cell holder. Thermal denaturation is carded out under computer control by increasing the temperature of the water bath in 2° C. increments, followed by a two-minute equilibration period at each temperature to allow the sample to reach thermal equilibrium. Reproducibility of the midpoint of these temperature melting curves (Tm) is ±2° C.
The maximum Tm values induced by 12 different ligands as determined by circular dichroism measurements at 228 nm are summarized in the first column of Table II. All of these ligands stabilize aFGF by 15°-25° C. in a manner similar to that originally observed with heparin. […] Furthermore, sulfate unions are found near analogous residues in the crystal structure of basic FGF, Eriksson et al., Proc. Natl. Acad. Sd. USA 88:3441-3445 (1991); Zhang et al., Proc. Natl. Acad. Sci. USA 88:3446-3450 (1991). Consequently, it seemed important to examine the ability of these ligands to stabilize aFGF during thermal denaturation as monitored by both fluorescence and circular dichroism. The Tm value of aFGF increased from 27° C. to 43° C. (fluorescence)and 45° C. to 51° C. (CD) when a 100 molar excess (3X by weight) of (IrCl6)^-3 was present. Similarly, sulfate union (120 mM) produced a species that was even more dramatically stabilized, melting at 57° C. (CD).
^(a) Thermal melting temperatures were measured by circular dichroism
Samples contained […] aFGF in PBS buffer pH 7.2 with excess ligand
(1-3× by weight except for 120 mM sodium sulfate and 10 mM

aFGF [3] = target: T1, aFGF; assay: Copper-catalyzed oxidation of aFGF thiol groups; format: biochemical; conditions: ligand 3X by weight; sodium sulfate 120 mM, tetrapolyphosphate 10 mM
Protocol: Copper-catalyzed oxidation of aFGF is carried out in the following manner. Acidic FGF (about 80 μg/ml) is incubated in a 20 mM Tris, 0.15M potassium chloride, pH 8 solution containing about 20 μM cuptic chloride for varying periods of time at room temperature. The reaction was terminated by the addition of 100 mM EDTA in the same buffer. A solution of about 0.7 ml of 0.25M Tris (about pH 8) containing about 2 mM EDTA and about 7 M GuHC1 is then added followed by about 35 μl of 4 mg/ml of DTNB (Sigma). Samples were incubated for 30 minutes, filtered through a 0.22 micron filter and the optical density measured at about 412 nm to determine sulfhydryl content, Riddles et al., Meth. Enzymol. 9:49-60 (1983). Relative standard deviation of the obtained values during time course experiments is 12%.
Acidic FGF contains three free cysteine residues at positions […], 83 and 117 in the polypeptide chain. […] It has also been shown that the copper catalyzed oxidative formation of a disulfide bond in the wild-type aFGF inactivates the protein in an in vitro mitogenic assay, Ortega et al., J. Biol. Chem. 266:5842-5846 (1991). Therefore, it was of interest to determine the extent to which heparin can stabilize aFGF against inactivation by oxidation. […] Samples contained 80 μg/ml aFGF with (a) 3X heparin by weight, (b) 0.1X heparin by weight and (c) buffer alone. As heparin was introduced and its concentration increased, the rate of copper-catalyzed oxidation decreased. For example, after 20 minutes, greater than 95% of the cysteine residues of aFGF are protected from oxidation with 3X heparin. FIG. 4B illustrates the fraction of remaining reactive thiol groups after a 10-minute incubation with cupric chloride as a function of heparin concentration.
Some aggregation of aFGF occurs under the conditions of these experiments presumably due to at least partial intermolecular disulfide formation. Thus, these measurements could simply be a measurement of the loss of solubility induced by copper association with aFGF. Several experiments, however, argue against this possibility. First, previous work has shown that at dilute protein concentration, copper does indeed catalyze oxidation of thiol groups of aFGF, Ortega et al., J. Biol. Chem. 266:5842-5846 (199 1 ). Second, as a control experiment, the copper-catalyzed oxidation of aFGF was carded out in a buffer containing 6 M GuHCl. Under these denaturing conditions, nearly 100% of the thiol groups in solution were lost after 10 minutes without visible aggregation. […] Regardless of the precise mechanism, copper addition is a distinct mechanism of inactivation compared to thermal stress.
Similar protection against oxidation experiments were carried out with other negatively charged compounds with an excess of ligand (3X by weight except for sodium sulfate at 120 mM and tetrapolyphosphate at 10 mM) added to aFGF before copper catalyzed oxidation. As shown in the second column of Table 2, all of these agents at least partially protect the cysteine residues of aFGF from oxidation.
^(b) Percentage of aFGF thiols remaining in solution after 10 min
incubation with cupric chloride. Experimental conditions are described in
FIG. 10. All samples contained ligand at 3× (by weight) except
sodium sulfate (120 mM) and tetrapolyphosphate (10 mM).

[4] = system: BALB/c 3T3 A31 fibroblasts; assay: Fibroblast mitogenic assay ([3H]-thymidine incorporation into DNA); format: cell-based; design: Bioactivity (mitogenic activity of aFGF in the presence of ligand): unit not given here; conditions: complete absence of heparin; < = response did not plateau; * = cell death observed
Protocol: Biological activity of the formulation of the instant invention is determined by a modification of the fibroblast mitogenic assay as described by Linemeyer et al. in European Patent Application, Publication No. 259,953. BALB/c 3T3 A31 fibroblasts (American Type Culture Collection) are plated at about 3×10^5 cells per 32 cm^2 wells in culture media containing about 10% heat-inactivated calf serum and incubated in about 7% CO2 (pH 7.35±0.05). The cells become fully quiescent by replacing the media with serum free media at about 6, about 24 hours and about 48 hours later. At about 53 hours after plating samples of the various formulations are added and about 0.12 μg of dexamethasone are added. At about 65 hours each well is supplemented with about 0.4 μCi of [methyl-^3 H]-thymidine (20 Ci/mmole, Dupont) and 0.6 μg of unlabeled thymidine (Sigma), and at 80 hours the cells are processed for determination of radiolabel incorporation into DNA. Each dose-response point is the average of at least quadruplicate determinations. Other cell types such vascular endothelial cells and corneal endothelial cells can be employed to determine in vitro mitogenicity. The procedures are described in detail by Thomas et al., Proc. Natl. Acad. Sci. USA 82:6409-6431 (1985).
^(d) Mitogenic activity of aFGF was measured in the presence of ligan
indicated in the complete absence of heparin.
*indicates cell death observed during assay.
Biological activity of the formulation of the instant invention was determined by a modification of the fibroblast mitogenic assay as described by Linemeyer et al. in European Patent Application, Publication No. 259,953. BALB/c 3T3 A31 fibroblasts (American Type Culture Collection) were plated at 3×10^5 cells per 32 cm^2 well in culture media containing about 10% heat-inactivated calf serum and incubated in 7% CO2 (pH 7.35±0.05). The cells become fully quiescent by replacing the media with serum free media at 6, 24 hours and 48 hours later. At 53 hours after plating samples of the various formulations were added and 0.12 μg of dexamethasone was added, at 65 hours each well was supplemented with 0.4 μCi of [methyl-^3 H]-thymidine (20 Ci/mmole, Dupont) and 0.6 μg of unlabeled thymidine (Sigma), and at 80 hours the cells were processed for determination of radiolabel incorporation into DNA. Each dose-response point is the average of at least quadruplicate determinations. Other cell types such vascular endothelial cells and corneal endothelial cells can be employed to determine in vitro mitogenidty. The procedures are described in detail by Thomas et al., Proc. Natl. Acad. Sci. USA 82:6409-6431 (1985).

[5] = Storage stability of aFGF formulations (protein mass and biological activity); conditions: versus EDTA or EGTA
Source text: Stabilization of aFGF can be determined by several independent methods including turbidity measurements, spectroscopic techniques, maintenance of protein mass, mitogenic activity and copper catalyzed oxidation. Since acidic fibroblast growth factor is unstable at physiological temperatures (undergoing large structural changes, including aggregation, which results in a loss of mitogenic and wound healing activity), human aFGF stability can be monitored by evaluating the turbidity of the pharmaceutical composition by following the kinetics of temperature induced aggregation of unfolded protein.

Compound: O=S(=O)([O-])[O-].[Na+].[Na+] [Sodium Sulfate, sodium sulfate]
- Cu Oxidation (% SH Lost in 10 Mins) (aFGF [3]): 25%
- Bioactivity (mitogenic activity of aFGF in the presence of ligand) [4]: 0
- Tm of aFGF (maximum Tm induced by ligand), circular dichroism (aFGF [2]): 57 °C

Compound: O=C(O)CC(O)(CC(=O)O)C(=O)O [citrate]
- effectiveness of chelating agent in stabilizing the aFGF-stabilizer-HEC combination [5]: not as effective as EDTA or EGTA

Compound: propyl-hydroxy-β- cyclodextrin
- stabilization of aFGF, circular dichroism (aFGF [2]; 3X by weight): did not stabilize addic FGF
- Tm of aFGF, circular dichroism (aFGF [2]): 47 °C

Compound: sulfated γ-cyclodextrin
- Cu Oxidation (% SH Lost in 10 Mins) (aFGF [3]): 5%
- Tm of aFGF (maximum Tm induced by ligand), circular dichroism (aFGF [2]): 70 °C

Further lines, with some results ahead:

- thermal melting temperature (Tm) of aFGF, fluorescence (aFGF [1]; 3X ligand by weight): 43 °C
- Tm of aFGF, circular dichroism (aFGF [2]): 51 °C
Compound: [Cl][Ir-3]([Cl])([Cl])([Cl])([Cl])[Cl] [(IrCl6)^-3, reference compound]

- Tm of aFGF (maximum Tm induced by ligand), circular dichroism (aFGF [2]): 65 °C
Compound: O=S(=O)(O)OC[C@H]1O[C@@](COS(=O)(=O)O)(O[C@H]2O[C@H](COS(=O)(=O)O)[C@@H](OS(=O)(=O)O)[C@H](OS(=O)(=O)O)[C@H]2OS(=O)(=O)O)[C@@H](OS(=O)(=O)O)[C@@H]1OS(=O)(=O)O [Sucrose octasulfate, sucrose octasulfate]
- Bioactivity (mitogenic activity of aFGF in the presence of ligand) [4]: 2.5

- effect of heparin fragment on Tm of aFGF (aFGF [1]; 1:1 weight ratio, fluorescence and circular dichroism): did not influence the Tm of aFGF
Compound: O=C(O)C1=C[C@H](O)[C@@H](OS(=O)(=O)O)[C@H](O[C@H]2[C@H](O)[C@@H](NS(=O)(=O)O)[C@@H](O)O[C@@H]2COS(=O)(=O)O)O1 [disaccharide, Δ.orgate.Ap2S(1→4)-α-D-GlcNp2S6S]

- effectiveness of chelating agent in stabilizing the aFGF-stabilizer-HEC combination [5]: not as effective as EDTA or EGTA
Compound: N[C@@H](Cc1c[nH]cn1)C(=O)O [histidine]

- Tm of aFGF, circular dichroism (aFGF [2]): 46 °C
Compound: OC[C@H]1O[C@@H]2O[C@H]3[C@H](O)[C@@H](O)[C@@H](O[C@H]4[C@H](O)[C@@H](O)[C@@H](O[C@H]5[C@H](O)[C@@H](O)[C@@H](O[C@H]6[C@H](O)[C@@H](O)[C@@H](O[C@H]7[C@H](O)[C@@H](O)[C@@H](O[C@H]8[C@H](O)[C@@H](O)[C@@H](O[C@H]1[C@H](O)[C@H]2O)O[C@@H]8CO)O[C@@H]7CO)O[C@@H]6CO)O[C@@H]5CO)O[C@@H]4CO)O[C@@H]3CO [β-cyclodextrin (sulfur content zero), β-cyclodextrin]
